Assay results reported in US8071590B2, “9-substituted-5-carboxy-oxadiazino-quinolone derivatives, their preparation and their application as anti-bacterials” (Vetoquinol SA, priority 2008, dated 2011).
Values after ≈ are worked out from the molar mass of the structure shown.

Experiments:
Type in all cases: cell-based
[1] = system: Staphylococcus aureus, resistant (Sta aur r); assay: microbe, parasite or virus in culture; details: read-out: MIC Sta aur r
[2] = system: Streptococcus uberis (Str ube); assay: microbe, parasite or virus in culture; details: read-out: MIC Str ube
[3] = system: Staphylococcus aureus, susceptible (Sta aur s); assay: microbe, parasite or virus in culture; details: read-out: MIC Sta aur s
[4] = system: Pseudomonas aeruginosa, susceptible (Pse aer s); assay: microbe, parasite or virus in culture; details: read-out: MIC Pse aer s
[5] = system: Bordetella bronchiseptica (Bor bron); assay: microbe, parasite or virus in culture; details: read-out: MIC Bor bron
[6] = system: Pseudomonas aeruginosa, resistant (Pse aer r); assay: microbe, parasite or virus in culture; details: read-out: MIC Pse aer r
[7] = system: Mycoplasma bovis (Myc bov); assay: microbe, parasite or virus in culture; details: Mycoplasmopsis bovis, read-out: MIC Myc bov
[8] = system: Clostridium perfringens (Clo per); assay: microbe, parasite or virus in culture; details: read-out: MIC Clo per
[9] = system: Mannheimia haemolytica, susceptible (Man hae s); assay: MIC determination by microdilution in liquid medium; details: susceptible strain
[10] = system: Escherichia coli (E coli); assay: microbe, parasite or virus in culture; details: read-out: MIC E coli
[11] = system: Mannheimia haemolytica, resistant (Man hae r); assay: MIC determination by microdilution in liquid medium; details: resistant strain

SMILES	MIC [1] [µg/mL]	MIC [2] [µg/mL]	MIC [3] [µg/mL]	MIC [4] [µg/mL]	MIC [5] [µg/mL]	MIC [6] [µg/mL]	MIC [7] [µg/mL]	MIC [8] [µg/mL]	MIC [9] [µg/mL]	MIC [10] [µg/mL]	MIC [11] [µg/mL]
CN1COc2c(N3CCN4CCCCC4C3)c(F)cc3c(=O)c(C(=O)O)cn1c23 (stereo not shown) [Example 6, 8-Fluoro-3-methyl-9-(octahydro-pyrido[1,2-a]pyrazin-2-yl)-6-oxo-2,3-dihydro-6H-1-oxa-3,3a-diaza-phenalene-5-carboxylic acid]	16 (≈ 39.8 µM)	1 (≈ 2.48 µM)	0.25 (≈ 0.621 µM)	2 (≈ 4.97 µM)	1 (≈ 2.48 µM)	32 (≈ 79.5 µM)	1 (≈ 2.48 µM)	0.5 (≈ 1.24 µM)	0.06 (≈ 0.149 µM)	0.12 (≈ 0.298 µM)	16 (≈ 39.8 µM)
CN1COc2c(N3CCN(C(=O)c4cccs4)CC3)c(F)cc3c(=O)c(C(=O)O)cn1c23 [Example 4, 8-Fluoro-3-methyl-6-oxo-9-[4-(thiophene-2-carbonyl)-piperazin-1-yl]-2,3-dihydro-6H-1-oxa-3,3a-diaza-phenalene-5-carboxylic acid]	4 (≈ 8.72 µM)	0.5 (≈ 1.09 µM)	0.06 (≈ 0.131 µM)		2 (≈ 4.36 µM)		0.5 (≈ 1.09 µM)	0.25 (≈ 0.545 µM)	0.25 (≈ 0.545 µM)	> 1	
CN1COc2c(N3CCN4CCC[C@@H]4C3)c(F)cc3c(=O)c(C(=O)O)cn1c23 [Example 9, 8-Fluoro-9-(R)-hexahydro-pyrrolo[1,2-a]pyrazin-2-yl-3-methyl-6-oxo-2,3-dihydro-6H-1-oxa-3,3a-diaza-phenalene-5-carboxylic acid]	8 (≈ 20.6 µM)	0.5 (≈ 1.29 µM)	0.12 (≈ 0.309 µM)	0.5 (≈ 1.29 µM)	0.25 (≈ 0.644 µM)	8 (≈ 20.6 µM)	0.5 (≈ 1.29 µM)	0.5 (≈ 1.29 µM)	0.03 (≈ 0.0772 µM)	0.03 (≈ 0.0772 µM)	4 (≈ 10.3 µM)
CN1COc2c(N3CCN(C(=O)c4cscn4)CC3)c(F)cc3c(=O)c(C(=O)O)cn1c23 [Example 2]	8 (≈ 17.4 µM)	2 (≈ 4.35 µM)	0.12 (≈ 0.261 µM)		> 1		1 (≈ 2.18 µM)	0.25 (≈ 0.544 µM)	0.25 (≈ 0.544 µM)	> 1	
CN1COc2c(N3CCN(C(=O)c4cccn4C)CC3)c(F)cc3c(=O)c(C(=O)O)cn1c23 [Example 1, 8-Fluoro-3-methyl-9-[4-(1-methyl-1H-pyrrole-2-carbonyl)-piperazin-1-yl]-6-oxo-2,3-dihydro-6H-1-oxa-3,3a-diaza-phenalene-5-carboxylic acid]	16 (≈ 35.1 µM)	2 (≈ 4.39 µM)	0.25 (≈ 0.549 µM)		> 1		0.5 (≈ 1.1 µM)	0.5 (≈ 1.1 µM)	1 (≈ 2.2 µM)	> 1	
CN1COc2c(N3CCN4CCC[C@H]4C3)c(F)cc3c(=O)c(C(=O)O)cn1c23 [Example 8, 8-Fluoro-9-(S)-hexahydro-pyrrolo[1,2-a]pyrazin-2-yl-3-methyl-6-oxo-2,3-dihydro-6H-1-oxa-3,3a-diaza-phenalene-5-carboxylic acid]	16 (≈ 41.2 µM)	0.5 (≈ 1.29 µM)	0.25 (≈ 0.644 µM)	0.5 (≈ 1.29 µM)	0.5 (≈ 1.29 µM)	8 (≈ 20.6 µM)	1 (≈ 2.57 µM)	0.25 (≈ 0.644 µM)	0.03 (≈ 0.0772 µM)	0.03 (≈ 0.0772 µM)	8 (≈ 20.6 µM)
CN1COc2c(N3CCN(C(=O)c4ccco4)CC3)c(F)cc3c(=O)c(C(=O)O)cn1c23 [Example 5, 8-Fluoro-9-[4-(furan-2-carbonyl)-piperazin-1-yl]-3-methyl-6-oxo-Z 3-dihydro-6H-1-oxa-3,3a-diaza-phenalene-5-carboxylic acid]	4 (≈ 9.04 µM)	1 (≈ 2.26 µM)	0.06 (≈ 0.136 µM)	> 1	> 1		0.5 (≈ 1.13 µM)	< 0.03	0.25 (≈ 0.565 µM)	1 (≈ 2.26 µM)	
CN1COc2c(N3CCN4CCCC4C3)c(F)cc3c(=O)c(C(=O)O)cn1c23 (stereo not shown) [Example 7, 8-Fluoro-9-(hexahydro-pyrrolo[1,2-a]pyrazin-2-yl)-3-methyl-6-oxo-2,3-dihydro-6H-1-oxa-3,3a-diaza-phenalene-5-carboxylic acid]	16 (≈ 41.2 µM)	0.5 (≈ 1.29 µM)	0.25 (≈ 0.644 µM)	1 (≈ 2.57 µM)	0.5 (≈ 1.29 µM)	8 (≈ 20.6 µM)	1 (≈ 2.57 µM)	0.25 (≈ 0.644 µM)	0.03 (≈ 0.0772 µM)	0.06 (≈ 0.154 µM)	4 (≈ 10.3 µM)
Cc1ncsc1C(=O)N1CCN(c2c(F)cc3c(=O)c(C(=O)O)cn4c3c2OCN4C)CC1 [Example 3, 8-Fluoro-3-methyl-9-[4-(4-methyl-thiazole-5-carbonyl)-piperazin-1-yl]-6-oxo-2,3-dihydro-6H-1-oxa-3,3a-diaza-phenalene-5-carboxylic acid]	16 (≈ 33.8 µM)	1 (≈ 2.11 µM)	0.25 (≈ 0.528 µM)		2 (≈ 4.22 µM)		2 (≈ 4.22 µM)	0.5 (≈ 1.06 µM)	0.5 (≈ 1.06 µM)	> 1	
